Source: patent publication US5523289A, “Pharmaceutical composition” (Abbott Laboratories, priority 1993, dated 1996)

Experiments:
salt depleted dogs = test: Blood pressure in salt depleted dogs after oral or intravenous administration; assay type: in vivo
[1] = dog, in vivo, po
Description: The following compositions comprising compound I were prepared and the bioavailability of each composition was determined in fasted dogs.
Dogs (beagle dogs, mixed sexes, weighing about 10 kg) were fasted for at least 12 hours before dosing. Food was returned after the last blood sample was collected (24 hours). Water was available at all times.
A dose equivalent to 50 or 100 milligrams of compound I was administered by mouth to each dog, followed with either 20 or 50 ml of water through a feeding tube.
Blood samples were collected at the following times: 0, 0.5, 1, 2, 3, 4, 6, 8, 12 and 24 hours. Blood samples of 3 ml volume were anti-coagulated with EDTA. The plasma was separated by centrifugation and frozen until analyzed. Blood plasma concentrations of compound I were determined by HPLC.
Bioavailability was calculated as follows: % Bioavailability=[(AUC)oral×D/(AUC) intravenous]×100. (AUC)oral and (AUC) intravenous are the areas under the curve for the plasma concentration-time profiles following oral and intravenous administration, respectively. D is defined as the intravenous vs. oral DOSE ratio. In particular, D=(DOSE)iv/DOSE)oral. The intravenous dose was 3.0 mg/kg and oral dose was about 5.0 mg/kg or about 10.0 mg/kg. The (AUC) intravenous value used corresponds to the mean value from a separate group of 6 dogs.

times more bioavailable orally as a tablet with organic polycarboxylic acid compared to tablet or powder filled capsule without the acid [1]: ≤ 7.8 times
Compound: CC(C)C[C@H](O)[C@H](O)[C@H](CC1CCCCC1)NC(=O)[C@H](Cc1cscn1)NC(=O)[C@H](Cc1ccccc1)CS(=O)(=O)N1CCN(C)CC1 [compound I, (2S)-2-Benzyl-3-(1-methyl-piperazin-4-ylsulfonyl)propionyl-(L)-(4-Thiazolyl)Ala Amide of (2S, 3R, 4S)-2-Amino-1-cyclohexyl-3,4-dihydroxy-6-methylheptane]
effect on blood pressure (salt depleted dogs): reduces blood pressure
